Source: US20130289070A1, “Use of Levocabastine for Modulating Generation of Pro-Inflammatory Cytokines” (Bausch & Lomb Incorporated, priority 2007, published 2013)

Tested on: EoL-1 (human eosinophilic leukaemia cell line) cells
Experiment: TNF-α-induced cytokine release, EoL-1 cells differentiated with PMA (Luminex)
Format: cell-based
Design: key to IL-1α (PMA), p of decrement / IL-1β (PMA), p of decrement / IL-1ra (PMA), p of decrement / IL-5 (PMA), p of decrement / IL-7 (PMA), p of decrement / IL-8 (PMA), p of decrement / IP-10 (PMA), p of decrement / MCP-1 (PMA), p of decrement / MIP-1β (PMA), p of decrement / RANTES (PMA), p of decrement / VEGF (PMA), p of decrement / Fractalkine (PMA), p of decrement / MIP-1α (PMA), p of decrement: ns = non significant
Details: 24 h
Procedure: EoL-1 (human eosinophilic leukaemia cell line) cells (Saito et al., 1985; Mayumi, 1992) were maintained in RPMI-1640 medium with L-glutamine supplemented with 10% (v/v) FBS at 37° C. in a humidified atmosphere with 5% CO2. Where indicated, 24 h before the experiment 25 ng/mL PMA ((phorbol 12-myristate 13-acetate, purchased from Sigma Aldrich) was added to the medium to induce eosinophil granulation and differentiation (Ohtsu et al., 1993; Zimmermann et al., 2000).
Half-million cells were aliquoted per point in a 24 well plate; each experiment was performed in triplicate and carried out in parallel with eosinophils differentiated and non differentiated with PMA (25 ng/mL, 24 h). Cells were suspended in low serum medium (RPMI-1640, 0.1% (v/v) FBS). TNF-α was used to induce cytokine secretion as previously described by Steube et al. (2000), and the net release was obtained by comparison to the basal (non-TNF-α treated). In the first experiment we evaluated the concentration and time relation between TNF-α stimulation and cytokine release. Therefore, 5, 10, and 25 ng/mL of TNF-α was administered to the cells at 0, ½, 1, 2, 3, 6, 12 and 24 h (data not shown). An aliquot of 150 μL of supernate was collected for cytokines' analysis. […] Differentiated and non-differentiated EoL-1 cells were exposed from 0.1 to 2.3 mM levocabastine ([…]Levocabastine 0.05% solution eye drops containing cyclodextrins, without benzalkonium chloride), and aliquots of the supernates were collected after 12 and 24 h. The content of cytokines at time zero was estimated by treating the cells with 400 nM calcimycin (A-23187), which is a cytolytic agent that frees all the mediators from the cytoplasmic compartment. In addition, for each experiment we tested the effect of the vehicle, which was added to the wells in a concentration equal to the maximum amount used for drug dilution.
Samples (supernates 12 and 24 h) in triplicate were analyzed using Luminex 200™ (Luminex, Austin, Tex.) and Beadview software v1.0 (Upstate Cell Signaling Solutions, Temecula, Calif.).
All data are presented as mean±SEM for the indicated number of experiments. Statistical significance was determined by Newman-Keuls test after ANOVA using GraphPad Prism (version 3.0; GraphPad Software Inc., San Diego, Calif., USA). P-values<0.05 were considered to be significant.

[1] = TNF-α 5 ng + Levocabastine 2 mM vs TNF-α
[2] = TNF-α 10 ng + Levocabastine 2 mM vs TNF-α
[3] = TNF-α 20 ng + Levocabastine 2 mM vs TNF-α
[4] = TNF-α 5, 10, 20 ng + Levocabastine 2 mM vs TNF-α

C[C@@H]1CN([C@H]2CC[C@](C#N)(c3ccc(F)cc3)CC2)CC[C@]1(C(=O)O)c1ccccc1 [Levocabastine, levocabastine]
IL-12p40 (PMA), p of decrement (Levocabastine 2 mM vs TNF-α): P < 0.001
IP-10 (PMA), p of decrement (Levocabastine 2 mM vs TNF-α): ns
MCP-1 (PMA), p of decrement (Levocabastine 2 mM vs TNF-α): ns
MIP-1α (PMA), p of decrement (Levocabastine 2 mM vs TNF-α): Increase
MIP-1β (PMA), p of decrement (Levocabastine 2 mM vs TNF-α): Increase
RANTES (PMA), p of decrement (Levocabastine 2 mM vs TNF-α): Increase
TGF-α (PMA), p of decrement (Levocabastine 2 mM vs TNF-α): ns
VEGF (PMA), p of decrement (Levocabastine 2 mM vs TNF-α): P < 0.001
Fractalkine (PMA), p of decrement [1]: ns
G-CSF (PMA), p of decrement [1]: ns
GM CSF (PMA), p of decrement [1]: ns
IL-1β (PMA), p of decrement [1]: ns
IL-5 (PMA), p of decrement [1]: ns
IL-6 (PMA), p of decrement [1]: ns
IL-7 (PMA), p of decrement [1]: ns
IL-8 (PMA), p of decrement [1]: P < 0.001
IL-10 (PMA), p of decrement [1]: ns
IL-12p40 (PMA), p of decrement [1]: ns
IP-10 (PMA), p of decrement [1]: ns
MCP-1 (PMA), p of decrement [1]: ns
MIP-1α (PMA), p of decrement [1]: ns
MIP-1β (PMA), p of decrement [1]: ns
TGF-α (PMA), p of decrement [1]: ns
VEGF (PMA), p of decrement [1]: P < 0.05
Fractalkine (PMA), p of decrement [2]: ns
G-CSF (PMA), p of decrement [2]: ns
GM CSF (PMA), p of decrement [2]: ns
IL-1β (PMA), p of decrement [2]: ns
IL-5 (PMA), p of decrement [2]: ns
IL-6 (PMA), p of decrement [2]: ns
IL-7 (PMA), p of decrement [2]: ns
IL-8 (PMA), p of decrement [2]: P < 0.001
IL-10 (PMA), p of decrement [2]: ns
IL-12p40 (PMA), p of decrement [2]: ns
IP-10 (PMA), p of decrement [2]: ns
MCP-1 (PMA), p of decrement [2]: ns
MIP-1α (PMA), p of decrement [2]: ns
MIP-1β (PMA), p of decrement [2]: ns
TGF-α (PMA), p of decrement [2]: ns
VEGF (PMA), p of decrement [2]: ns
Fractalkine (PMA), p of decrement [3]: ns
G-CSF (PMA), p of decrement [3]: ns
GM CSF (PMA), p of decrement [3]: ns
IL-1β (PMA), p of decrement [3]: ns
IL-5 (PMA), p of decrement [3]: ns
IL-6 (PMA), p of decrement [3]: ns
IL-7 (PMA), p of decrement [3]: ns
IL-8 (PMA), p of decrement [3]: P < 0.001
IL-10 (PMA), p of decrement [3]: ns
IL-12p40 (PMA), p of decrement [3]: ns
IP-10 (PMA), p of decrement [3]: ns
MCP-1 (PMA), p of decrement [3]: ns
MIP-1α (PMA), p of decrement [3]: ns
MIP-1β (PMA), p of decrement [3]: ns
TGF-α (PMA), p of decrement [3]: ns
VEGF (PMA), p of decrement [3]: P < 0.05
IL-1ra (PMA), p of decrement [4]: increase of cytokine secretion
IL-1α (PMA), p of decrement [4]: increase of cytokine secretion
RANTES (PMA), p of decrement [4]: increase of cytokine secretion
Fractalkine (PMA), p of decrement (TNF-α vs Lev 0.1 mM): ns
IL-1ra (PMA), p of decrement (TNF-α vs Lev 0.1 mM): ns
IL-1α (PMA), p of decrement (TNF-α vs Lev 0.1 mM): ns
IL-1β (PMA), p of decrement (TNF-α vs Lev 0.1 mM): p < 0.05
IL-5 (PMA), p of decrement (TNF-α vs Lev 0.1 mM): ns
IL-7 (PMA), p of decrement (TNF-α vs Lev 0.1 mM): ns
IL-8 (PMA), p of decrement (TNF-α vs Lev 0.1 mM): ns
